Reference: paper PMC7253177, “Gain of channel function and modified gating properties in TRPM3 mutants causing intellectual disability and epilepsy” (eLife, 2020)

Target: T1, TRPM3 P1090Q mutant (Homo sapiens, UniProt Q9HCF6, P1115Q)
T1 sequence (Q9HCF6 1-1325 isoform Q9HCF6-10 P1090Q): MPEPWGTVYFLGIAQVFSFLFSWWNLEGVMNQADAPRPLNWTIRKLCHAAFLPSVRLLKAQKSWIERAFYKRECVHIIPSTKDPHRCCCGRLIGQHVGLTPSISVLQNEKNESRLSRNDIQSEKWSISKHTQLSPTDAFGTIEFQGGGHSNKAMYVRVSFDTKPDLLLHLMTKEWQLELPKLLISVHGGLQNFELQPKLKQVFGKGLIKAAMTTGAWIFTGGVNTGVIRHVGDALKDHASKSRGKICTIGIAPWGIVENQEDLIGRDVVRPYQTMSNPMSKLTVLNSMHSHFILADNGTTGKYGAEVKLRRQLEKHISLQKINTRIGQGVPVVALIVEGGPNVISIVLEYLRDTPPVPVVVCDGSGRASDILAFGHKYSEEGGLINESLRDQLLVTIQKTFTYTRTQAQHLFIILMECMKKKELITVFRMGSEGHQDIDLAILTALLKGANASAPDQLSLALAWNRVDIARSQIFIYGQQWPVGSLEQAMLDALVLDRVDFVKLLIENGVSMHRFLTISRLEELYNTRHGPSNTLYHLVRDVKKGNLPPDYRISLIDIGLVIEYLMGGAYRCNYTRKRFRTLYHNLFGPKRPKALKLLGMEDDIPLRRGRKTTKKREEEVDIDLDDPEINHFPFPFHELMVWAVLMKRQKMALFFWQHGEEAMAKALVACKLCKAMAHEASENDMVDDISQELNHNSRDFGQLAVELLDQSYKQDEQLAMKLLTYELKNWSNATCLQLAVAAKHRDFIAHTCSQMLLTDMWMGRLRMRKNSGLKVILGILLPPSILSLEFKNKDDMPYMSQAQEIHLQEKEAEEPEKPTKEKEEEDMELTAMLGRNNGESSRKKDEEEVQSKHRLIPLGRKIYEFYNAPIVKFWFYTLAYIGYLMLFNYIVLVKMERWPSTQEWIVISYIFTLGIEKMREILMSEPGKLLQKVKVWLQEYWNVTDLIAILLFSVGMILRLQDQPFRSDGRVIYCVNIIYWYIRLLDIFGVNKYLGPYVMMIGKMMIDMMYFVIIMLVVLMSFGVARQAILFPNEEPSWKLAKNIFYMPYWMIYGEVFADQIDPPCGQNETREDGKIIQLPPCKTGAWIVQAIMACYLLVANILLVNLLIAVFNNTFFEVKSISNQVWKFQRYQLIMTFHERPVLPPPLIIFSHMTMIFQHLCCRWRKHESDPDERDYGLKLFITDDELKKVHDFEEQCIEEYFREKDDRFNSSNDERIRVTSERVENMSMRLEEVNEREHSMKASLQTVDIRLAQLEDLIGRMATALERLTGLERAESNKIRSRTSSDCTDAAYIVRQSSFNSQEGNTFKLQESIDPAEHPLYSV
Experimental: HEK293T cells ([Graham et al., 1977]) were cultured as described previously ([Vriens et al., 2007]) and used up in passage number 14. HEK293T cells were tested for the lack of mycoplasma and transiently transfected with 2 µg of DNA using TransIT transfection reagent (Mirus) 36–48 hr before the measurements. In case of co-cultures a ratio of 1:1 between hTRPM3-YFP WT and mutants-YFP DNA was used.
All mutants were obtained by the standard PCR overlap extension method using hTRPM3 directly linked to YFP from pCAGGS/IRES-GFP vector ([Vriens et al., 2007]). Accuracy of all mutant sequences was verified by sequencing of the entire DNA constructs.
Standard whole-cell patch-clamp recordings were performed with an EPC-10 amplifier and the PatchMasterPro Software (HEKA Elektronik, Lambrecht, Germany). Current measurements were performed at a sampling rate of 20 kHz and currents were digitally filtered at 2.9 kHz. In all measurements, 70% of the series resistance was compensated. The standard internal solution contained (in mM): 100 CsAsp, 45 CsCl, 10 EGTA, 10 HEPES, 1 MgCl2 (pH 7.2 with CsOH) or 140 potassium gluconate, 5 EGTA, 1 MgCl2, 10 HEPES and 2 NaATP (pH 7.3 with CsOH) for the measurements of Gβγ mediated inhibition and the standard extracellular solution contained (in mM): 150 NaCl, 1 MgCl2, 10 HEPES (pH 7.4 with NaOH). The standard patch pipette resistance was between 2 MΩ and 4 MΩ when filled with pipette solution. In experiments allowing Ca^2+-dependent desensitization of TRPM3, Mg^2+ was replaced by Ca^2+ in the extracellular solution, and Cs^+ was replaced by Na^+ in the pipette solution. […] The chemical ligands were dissolved in bath solution from a stock diluted in DMSO.

Row | Compound | Inhibition of PS-activated inward and outward currents (primidone 25 µM, PS 40 µM, ±80 mV, cells co-expressing µ-opioid receptor) | Activation of whole-cell currents in the absence of PS (Clt 10 µM) | Effect on the response to PS (whole-cell currents) (Clt 10 µM, PS 40 µM)
1 | CCC1(c2ccccc2)C(=O)NCNC1=O [primidone] | full inhibition | – | –
2 | Clc1ccccc1C(c1ccccc1)(c1ccccc1)n1ccnc1 [Clt, clotrimazole] | – | did not activate currents | inhibited the response to PS
